Source: ChEMBL document CHEMBL1125655 (J Med Chem, 1991)

Assay: pKa value of the compound
Assay type: physicochemical

Structure (SMILES): CN1CC[C@]23c4c5ccc(O)c4O[C@H]2[C@@H](O[C@@H]2O[C@H](C(=O)O)[C@@H](O)[C@H](O)[C@H]2O)C=C[C@H]3[C@H]1C5 (stereo in doubt; form 1) [MORPHINE GLUCURONIDE]
- pKa: 3.23
